The target in one data set is full length NS3/4a (Hepatitis C virus genotype 1b (isolate BK) (HCV), UniProt P26663). Description: NS3 Protease Assay (Example A), FRET-based. The format is biochemical. The gist of the method:
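Full-length NS3/4a, made in-house, with an NS4A/B-derived peptide substrate carrying QXL520 quencher and 5-FAMsp fluorophore. Buffer 50 mM Tris pH8, 20 mM DTT, 1% CHAPS, 10% glycerol, 5% DMSO. Fluorescence followed 30 min at room temperature; IC50 from initial rates of replicate curves.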

Data set [1] concerns HCV subgenomic replicon in Huh-7 cells. Kind of data set: Replicon Assay (Example B), luciferase readout EC50. The format is cell-based. The settings on record: Hepatitis C virus, Huh-7, replicon assay, luciferase readout; upper value of the cell pair; read-out: Assay B EC50. How it is done: The activities of compounds of the invention against HCV in a cellular environment were analysed using a replicon assay as described below.
(§1) Thus, Huh-7 cells persistently infected with an HCV-RNA construct (Bartenschlager, R. Hepatitis C replicons: potential role for drug development. Nature Rev. Drug Discov. 1, 911-916 (2002)) comprising: 5′ and 3′ non-translated regions (NTR); the non-structural genes NS3 to NS5b; as well as the G418 drug resistance gene, neomycin, (for selection of cells carrying HCV replicon RNA) fused to the firefly Luciferase reporter gene (pFKI3889Iuc-ubi-neo/NS3-3′/ET) were used to determine the cell based antiviral activity of compounds using luciferase activity as an indirect readout of HCV RNA load. In this assay […] huh-7 cells persistently infected with the HCV subgenomic replicon construct above were plated/well in a 96 well tissue culture plate. The cells were allowed to attach overnight in DMEM medium supplemented with 10% FBS 1% NEAA, and 250 μg/ml gentamicin. The following day the medium was replaced with 200 μl/well of fresh medium as described above lacking gentamicin. Semilog dilutions of compounds in medium were then added to triplicate wells (non-edge) of the cultured cells to give a 0.1% DMSO final concentration. Plates were then incubated at 37° C. in an atmosphere of 5% CO2 and air for 72 h. […] The plate was then read at 535 nm (excitation) and 590 nm (emission) on a SpectraMax Gemini reader (Molecular Devices) to determine the number of viable cells by measuring the conversion of rezasurin (Alamar blue) to resorufin in response to mitochondrial activity. In order to determine the antiviral effect of these compounds EC50 values were determined by measuring the luciferase activity of the cells. Alamar blue solution was removed from the wells and replaced with 100 μl/well of medium along with 100 μl/well of Bright-Glo reagent and incubated at room temperature for 5 minutes before transferring 100 μl/well to a white bottom 96 well plate to read in a luminometer as described in the Bright-Glo Luciferase Assay System protocol (promega).
For orientation: A replicon is a self-replicating genome or part of one, used to study replication in cells.

A short description of data set [2]: Replicon Assay (Example B), Alamar Blue cytotoxicity CC50. The data set is classed as cell-based. The settings on record: human, lower value of the cell pair.
Description: as §1

Setting [3] is: HCV NS3 protease assay, full length NS3/4a, read-out: Assay A IC50 (μM) average.
The mark [4] stands for this setting: read-out: IC50 against the protease activity of the full length NS3/4a.

Where two headings read alike, the source gives them in different places.

Chain of full length NS3/4a (P26663 1027-1657): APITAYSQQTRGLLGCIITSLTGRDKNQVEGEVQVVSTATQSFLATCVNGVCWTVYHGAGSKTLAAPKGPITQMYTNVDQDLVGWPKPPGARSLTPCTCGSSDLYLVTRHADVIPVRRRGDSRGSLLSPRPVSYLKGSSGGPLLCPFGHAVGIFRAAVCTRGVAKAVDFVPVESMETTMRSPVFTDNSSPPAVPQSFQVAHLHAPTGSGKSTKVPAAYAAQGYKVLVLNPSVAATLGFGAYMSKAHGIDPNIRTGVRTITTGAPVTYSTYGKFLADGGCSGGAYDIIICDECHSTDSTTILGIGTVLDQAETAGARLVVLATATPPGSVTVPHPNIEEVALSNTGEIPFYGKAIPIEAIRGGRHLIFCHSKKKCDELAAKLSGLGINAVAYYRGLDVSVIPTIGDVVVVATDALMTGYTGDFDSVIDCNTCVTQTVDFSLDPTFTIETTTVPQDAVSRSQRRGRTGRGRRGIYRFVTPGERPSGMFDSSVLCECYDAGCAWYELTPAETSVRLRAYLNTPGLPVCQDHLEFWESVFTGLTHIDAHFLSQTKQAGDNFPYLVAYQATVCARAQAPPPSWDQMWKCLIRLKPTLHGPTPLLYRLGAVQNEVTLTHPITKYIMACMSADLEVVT

On to `CC[C@@H](N[C@@H](C)CC(N)=O)c1ccc(Cl)c(C(=O)c2cncc(N)c2)c1F` [Example 145, (3S)-3-{[(1R)-1-{3-[(5-aminopyridin-3-yl)carbonyl]-4-chloro-2-fluorophenyl}propyl]-amino}butanamide], for which the IC50 on full length NS3/4a (setting [3]) was 0.84 µM. Further, in data set [1], the EC50 was found to be 1000 nM. For the same compound, the cytotoxic concentration (CC50) at 72 h in data set [2] was > 10000 nM.
Regarding `CC[C@@H](N[C@@H](C)CC(N)=O)c1ccc(Cl)c(C(=O)c2ccc(=O)[nH]c2)c1F` [Example 147, (3S)-3-{[(1R)-1-{4-chloro-2-fluoro-3-[(6-oxo-1,6-dihydropyridin-3-yl)carbonyl]-phenyl}propyl]amino}-butanamide], the IC50 at full length NS3/4a (setting [3]) is 0.39 µM. For the same compound, the EC50 in data set [1] came to 2100 nM. In data set [2], the CC50 at 72 h was > 10000 nM.
The like results for `CC[C@@H](N[C@@H](C)CC(N)=O)c1ccc(Cl)c(C(=O)c2ccc(N)cn2)c1F` [Example 149, (3S)-3-{[(1R)-1-{3-[(5-aminopyridin-2-yl)carbonyl]-4-chloro-2-fluorophenyl}propyl]amino}-butanamide] were, in that order, 0.2 µM, 39 nM and > 10000 nM.
Take `CC[C@@H](N[C@@H](C)CC(N)=O)c1ccc(C)c(C(=O)c2ccccc2)c1F` [Example 150, (3S)-3-{[(1R)-1-(3-benzoyl-2-fluoro-4-methylphenyl)propyl]-amino}butanamide]: the IC50 on full length NS3/4a (setting [3]) worked out at 0.068 µM. Moreover, the EC50 in data set [1] worked out at 310 nM. In addition, the CC50 at 72 h in data set [2] was > 10000 nM.
In the case of `CC[C@@H](N[C@@H](C)CC(N)=O)c1ccc(OC)c(C(=O)c2ccccc2)c1F` [Example 152, (3S)-3-{[(1R)-1-(3-benzoyl-2-fluoro-4-methoxyphenyl)propyl]-amino}butanamide], the IC50 at full length NS3/4a (setting [3]) is 0.051 µM. In addition, the 50% effective concentration (EC50) in data set [1] was 66 nM. The 50% cytotoxic concentration (CC50) at 72 h in data set [2] was > 10000 nM.
On to `C[C@@H](CC(N)=O)N[C@@H](c1ccc(Cl)c(C(=O)c2ccc(N)nc2)c1F)C1CC1` [Example 154, (3S)-3-{[(R)-{3-[(6-aminopyridin-3-yl)carbonyl]-4-chloro-2-fluorophenyl}(cyclo-propyl)methyl]amino}-butanamide], for which, on full length NS3/4a (setting [3]), the IC50 was 0.2 µM. In addition, in data set [1], the 50% effective concentration (EC50) turned out to be 37 nM. Moreover, the 50% cytotoxic concentration (CC50) at 72 h in data set [2] is > 10000 nM.
As for `CC[C@@H](N[C@@H](C)CC(N)=O)c1ccc(F)c(C(=O)c2ccccc2)c1F` [Example 157, (3S)-3-{[(1R)-1-(3-benzoyl-2,4-difluorophenyl)propyl]-amino}butanamide], on full length NS3/4a (setting [3]), the IC50 was 0.045 µM. For the same compound, in data set [1], the EC50 was 610 nM. The CC50 at 72 h in data set [2] was > 10000 nM.
The like results for `CC[C@@H](N[C@@H](C)CC(N)=O)c1ccc(Cl)c(C(=O)c2ccc(-n3cc(CO)cn3)nc2)c1F` [Example 159, (3S)-3-{[(1R)-1-[4-chloro-2-fluoro-3-({6-[4-(hydroxymethyl)-1H-pyrazol-1-yl]pyridin-3-yl}carbonyl)phenyl]-propyl]amino}-butanamide] were, in that order, 0.24 µM, 100 nM and > 10000 nM.
Consider `CC[C@@H](NCCC(N)=O)c1ccc(Cl)c(C(=O)c2cccnc2)c1F` [Example 162, 3-{[(1R)-1-{4-Chloro-2-fluoro-3-[(pyridin-3-yl)carbonyl]phenyl}propyl]amino}propanamide], for which the IC50 on full length NS3/4a (setting [3]) was 0.59 µM; on full length NS3/4a (setting [4]), < 1 µM. For the same compound, the EC50 in data set [1] was > 3000 nM. For the same compound, the CC50 at 72 h in data set [2] is > 3000 nM.
For `CC[C@@H](NCCC(N)=O)c1ccc(Cl)c(C(=O)c2ccccc2)c1F` [Example 167, 3-{[(1R)-1-(3-Benzoyl-4-chloro-2-fluorophenyl)propyl]amino}-propanamide], the IC50 is 0.098 µM on full length NS3/4a (setting [3]) and < 1 µM at full length NS3/4a (setting [4]). For the same compound, the concentration for a half-maximal effect (EC50) in data set [1] was 630 nM. In addition, the cytotoxic concentration (CC50) at 72 h in data set [2] is > 3000 nM.
For the compound `CC[C@@H](NCC1(C(N)=O)CC1)c1ccc(Cl)c(C(=O)c2cccnc2)c1F` [Example 168, 1-({[(1R)-1-{4-Chloro-2-fluoro-3-[(pyridin-3-yl)carbonyl]phenyl}propyl]amino}methyl)-cyclopropane-1-carboxamide], the IC50 at full length NS3/4a (setting [3]) is 0.55 µM; on full length NS3/4a (setting [4]), < 1 µM. Moreover, in data set [1], the concentration for a half-maximal effect (EC50) was > 3000 nM. Also, the CC50 at 72 h in data set [2] was > 3000 nM.
For the compound `CC[C@H](NCCO)c1ccc(Cl)c(C(=O)c2ccccc2)c1F` [Example 171, 2-{[(1S)-1-(3-benzoyl-4-chloro-2-fluorophenyl)propyl]-amino}ethan-1-ol], the results for the IC50 on full length NS3/4a (setting [3]) and on full length NS3/4a (setting [4]) were 0.056 µM and < 1 µM, respectively. In addition, the EC50 in data set [1] is > 3000 nM. In addition, the half-maximal cytotoxic concentration (CC50) at 72 h in data set [2] was > 3000 nM.
`CC[C@@H](NCCO)c1ccc(Cl)c(C(=O)c2ccccc2)c1F` [Example 176, 2-{[(1R)-1-(3-benzoyl-4-chloro-2-fluorophenyl)propyl]amino}ethan-1-ol]: on full length NS3/4a (setting [3]), the IC50 stood at 0.29 µM. For the same compound, the EC50 in data set [1] was > 3000 nM. Further, the cytotoxic concentration (CC50) at 72 h in data set [2] was > 3000 nM.
Turning to `CC[C@H](N[C@@H](C)CO)c1ccc(Cl)c(C(=O)c2ccc(N)nc2)c1F` [Example 177, (2S)-2-{[(1S)-1-{3-[(6-aminopyridin-3-yl)carbonyl]-4-chloro-2-fluorophenyl}propyl]amino}propan-1-ol], on full length NS3/4a (setting [3]), the IC50 was 0.18 µM. Besides, the EC50 in data set [1] was > 3000 nM. Besides, the 50% cytotoxic concentration (CC50) at 72 h in data set [2] is > 3000 nM.
With `CC[C@H](N[C@H](C)CO)c1ccc(Cl)c(C(=O)c2ccc(N)nc2)c1F` [Example 178, (2R)-2-{[(1S)-1-{3-[(6-aminopyridin-3-yl)carbonyl]-4-chloro-2-fluorophenyl}propyl]-amino}propan-1-ol], the IC50 at full length NS3/4a (setting [3]) worked out at 0.088 µM. In data set [1], the concentration for a half-maximal effect (EC50) worked out at 250 nM. The CC50 at 72 h in data set [2] is > 3000 nM.
The like results for `CCC(NC(C)(C)CO)c1ccc(Cl)c(C(=O)c2ccccc2)c1F` (stereo not drawn) [Example 179, 2-{[1-(3-benzoyl-4-chloro-2-fluorophenyl)-propyl]amino}-2-methylpropan-1-ol] were, in that order, 0.063 µM, 300 nM and > 3000 nM.
With `CC[C@@H](NCCC(N)=O)c1ccc(Cl)c(C(=O)c2ccc(N)nc2)c1F` [Example 180, 3-{[(1R)-1-{3-[(6-Aminopyridin-3-yl)carbonyl]-4-chloro-2-fluorophenyl}propyl]amino}propanamide], the IC50 at full length NS3/4a (setting [3]) stood at 0.14 µM. In addition, the EC50 in data set [1] stood at 270 nM. Further, the CC50 at 72 h in data set [2] is > 3000 nM.
`CC[C@@H](NCCC(N)=O)c1ccc(Cl)c(C(=O)c2cnc(N)cn2)c1F` [Example 183, 3-{[(1R)-1-{3-[(5-Aminopyrazin-2-yl)carbonyl]-4-chloro-2-fluorophenyl}propyl]amino}propanamide]: the IC50 on full length NS3/4a (setting [3]) amounted to 0.5 µM. Moreover, the EC50 in data set [1] was 2200 nM. Also, the CC50 at 72 h in data set [2] was > 10000 nM.
The like results for `COc1ccc([C@H](N[C@@H](C)CC(N)=O)C2CC2)c(F)c1C(=O)c1cccc(F)c1` [Example 224, (3S)-3-{[(R)-cyclopropyl({2-fluoro-3-[(3-fluorophenyl)carbonyl]-4-methoxyphenyl})methyl]amino}butanamide] were, in that order, 0.081 µM, 190 nM and > 3000 nM.
The like results for `CC[C@@H](CC(N)=O)N[C@H](CC)c1ccc(Cl)c(C(=O)c2ccc(N)nc2)c1F` [Example 225, (3S)-3-{[(1R)-1-{3-[(6-aminopyridin-3-yl)carbonyl]-4-chloro-2-fluorophenyl}propyl]amino} pentanamide] were, in that order, 0.35 µM, 28 nM and > 3000 nM.
Take `CC[C@@H](N[C@@H](C)CC(N)=O)c1ccc(Cl)c(C(=O)c2cccc(O)c2)c1F` [Example 227, (3S)-3-{[(1R)-1-{4-chloro-2-fluoro-3-[(3-hydroxyphenyl)carbonyl]phenyl}propyl]amino} butanamide]: the IC50 on full length NS3/4a (setting [3]) was 0.15 µM; on full length NS3/4a (setting [4]) it was < 1 µM. Besides, the EC50 in data set [1] stood at 11 nM. For the same compound, the 50% cytotoxic concentration (CC50) at 72 h in data set [2] is > 3000 nM.
As for `CC[C@@H](N[C@@H](C)CC(N)=O)c1ccc(Cl)c(C(=O)c2ccc3c(n2)NC(=O)CO3)c1F` [Example 229, (3S)-3-{[(1R)-1-[4-chloro-2-fluoro-3-({3-oxo-2H,3H,4H-pyrido[3,2-b][1,4]oxazin-6-yl}carbonyl)phenyl]propyl]amino}butanamide], the IC50 at full length NS3/4a (setting [3]) is 1.1 µM; on full length NS3/4a (setting [4]), 1 to 5 µM. In addition, the EC50 in data set [1] turned out to be 1900 nM. The half-maximal cytotoxic concentration (CC50) at 72 h in data set [2] was > 3000 nM.

What is called EC50 is the concentration at which the effect is half-maximal. For orientation: CC50 means the concentration at which the toxic effect on the cells reaches its halfway point. Low values mean greater toxicity to the cells, high ones lower toxicity to the cells.

The values are drawn from US9145354B2, “Pharmaceutical compounds” (priority 2011, dated 2015).
